Key:
[1] = molecular target: T1, hM2 receptor (CHO-K1 cell membranes) (Homo sapiens, UniProt P08172); test: Blockade of agonist-mediated (oxotremorine-stimulated) [35S]GTPγS binding; type: biochemical; conditions: CHO-K1 cells expressing the hM2 receptor
T1 construct: expressed in transfected cells; host or cells: membranes of CHO (CHO-K1) cells stably expressing the cloned human receptor
T1 sequence (P08172 1-466): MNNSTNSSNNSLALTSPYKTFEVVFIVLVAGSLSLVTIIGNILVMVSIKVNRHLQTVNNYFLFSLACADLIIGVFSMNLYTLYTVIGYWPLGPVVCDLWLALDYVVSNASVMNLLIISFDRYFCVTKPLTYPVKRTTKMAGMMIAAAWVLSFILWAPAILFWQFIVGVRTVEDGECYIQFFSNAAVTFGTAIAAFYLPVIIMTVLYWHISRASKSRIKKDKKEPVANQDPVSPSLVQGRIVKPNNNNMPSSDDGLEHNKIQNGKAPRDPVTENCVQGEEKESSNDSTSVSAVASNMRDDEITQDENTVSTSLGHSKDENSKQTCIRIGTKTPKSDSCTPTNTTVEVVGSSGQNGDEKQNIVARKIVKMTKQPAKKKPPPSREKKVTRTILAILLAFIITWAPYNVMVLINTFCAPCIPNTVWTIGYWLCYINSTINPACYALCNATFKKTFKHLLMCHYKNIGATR
Method: B. Blockade of Agonist-Mediated [^35S]GTPγS Binding
In a second functional assay, the functional potency of test compounds can be determined by measuring the ability of the compounds to block oxotremorine-stimulated [^35S]GTPγS binding in CHO—K1 cells expressing the hM2 receptor.
At the time of use, frozen membranes were thawed and then diluted in assay buffer with a final target tissue concentration of 5-10 μg protein per well. The membranes were briefly homogenized using a Polytron PT-2 100 tissue disrupter and then added to the assay plates.
The EC90 value (effective concentration for 90% maximal response) for stimulation of[^35S]GTPγS binding by the agonist oxotremorine was determined in each experiment.
To determine the ability of a test compound to inhibit oxotremorine-stimulated [^35S]GTPγS binding, the following was added to each well of 96 well plates: 25 μL of assay buffer with [^35S]GTPγS (0.4nM), 25 μL of oxotremorine(ECgo) and GDP (3 μM), 25 μL of diluted test compound and 25 μL CHO cell membranes expressing the hM2 receptor. […] Microscint-20 scintillation liquid (50 μL) was added to each well, and each plate was sealed and radioactivity counted on a topcounter (PerkinElmer). Data were analyzed by nonlinear regression analysis with the GraphPad Prism Software package (GraphPad Software, Inc., San Diego, Calif.) using the non-linear regression, one-site competition equation. […]

hM3 receptor (CHO cells) = molecular target: T2, hM3 receptor (CHO cells) (Homo sapiens, UniProt P20309); test: Blockade of agonist-mediated calcium release via FLIPR assay; type: cell-based; conditions: CHO cells stably expressing the hM3 receptor
T2 construct: expressed in transfected cells
T2 sequence (P20309 whole entry): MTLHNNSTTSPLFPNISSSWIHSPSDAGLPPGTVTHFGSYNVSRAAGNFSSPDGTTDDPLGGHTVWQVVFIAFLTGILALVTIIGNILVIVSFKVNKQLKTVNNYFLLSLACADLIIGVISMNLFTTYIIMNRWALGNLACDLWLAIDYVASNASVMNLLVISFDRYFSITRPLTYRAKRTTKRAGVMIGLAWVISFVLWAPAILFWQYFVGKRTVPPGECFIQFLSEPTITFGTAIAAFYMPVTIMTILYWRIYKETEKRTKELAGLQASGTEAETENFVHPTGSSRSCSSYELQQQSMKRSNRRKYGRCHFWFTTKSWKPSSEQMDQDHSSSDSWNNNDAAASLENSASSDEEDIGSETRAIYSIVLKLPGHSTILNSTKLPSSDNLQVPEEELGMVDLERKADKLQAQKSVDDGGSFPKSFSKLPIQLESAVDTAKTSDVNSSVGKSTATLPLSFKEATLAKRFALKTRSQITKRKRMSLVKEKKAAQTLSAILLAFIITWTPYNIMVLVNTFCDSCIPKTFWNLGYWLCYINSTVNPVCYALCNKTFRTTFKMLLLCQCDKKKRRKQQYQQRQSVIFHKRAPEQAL
Source text: C. Blockade of Agonist-Mediated Calcium Release via FLIPR Assays
Muscarinic receptor subtypes (M1, M3 and M5 receptors), which couple to Gq proteins, activate the phospholipase C (PLC) pathway upon agonist binding to the receptor. As a result, activated PLC hydrolyzes phosphatyl inositol diphosphate (PIP2) to diacylglycerol (DAG) and phosphatidyl-1,4,5-triphosphate (IP3), which in turn generates calcium release from intracellular stores, i.e., endoplasmic and sarcoplasmic reticulum. […] This fluorescence event was measured in real time by the FLIPR, which detected the change in fluorescence from a monolayer of cells cloned with human M1 and M3, and chimpanzee M5 receptors. Antagonist potency was determined by the ability of antagonists to inhibit agonist-mediated increases in intracellular calcium. […]
To determine antagonist potency, the dose-dependent stimulation of intracellular Ca^2+release for oxotremorine was first determined so that antagonist potency can later be measured against oxotremorine stimulation at an EC90 concentration. […] Baseline was determined by measuring the change in fluorescence for 10 seconds prior to addition of agonist. Following agonist stimulation, the FLIPR continuously measured the change of fluorescence every 0.5 to 1 second for 1.5 minutes to capture the maximum fluorescence change. […]

[2] = test system: MCh-induced depressor responses; test: Methacholine-induced depressor responses in conscious guinea pigs; type: in vivo; conditions: guinea pig, inhalation
Source text: Healthy, adult, male Sprague-Dawley guinea pigs (Harlan, Indianapolis, Ind.), weighing between 200 and 300 g were used in these studies. Under isoflurane anesthesia (to effect), animals were instrumented with common carotid artery and jugular vein catheters (PE-50 tubing). The catheters were exteriorized utilizing a subcutaneous tunnel to the subscapular area. All surgical incisions were sutured with 4-0 Ethicon Silk and the catheters locked with heparin (1000 units/mL). Each animal was administered saline (3 mL, SC) at the end of surgery as well as buprenorphine (0.05 mg/kg, IM). Animals were allowed to recover on a heating pad before being returned to their holding rooms.
Approximately 18 to 20 hours following surgery, the animals were weighed and the carotid artery catheter on each animal was connected to a transducer for recording arterial pressure. Arterial pressure and heart rate was recorded using a Biopac MP-100 Acquisition System. Animals were allowed to acclimate and stabilize for a period of 20 minutes.
Each animal was challenged with MCh (0.3 mg/kg, IV) administered through the jugular venous line and the cardiovascular response was monitored for 10 minutes. […] At 1.5 and 24 hours post-dosing, the animals were re-challenged with MCh (0.3 mg/kg, IV) and the hemodynamic response was determined. […]

[3] = test system: pilocarpine-evoked salivation; test: Inhalation guinea pig salivation assay (pilocarpine-evoked salivation); type: in vivo
Method: Guinea pigs (Charles River, Wilmington, Mass.) weighing 200-350 g were acclimated to the in-house guinea pig colony for at least 3 days following arrival. Test compound or vehicle were dosed via inhalation (IH) over a 10 minute time period in a pie shaped dosing chamber (R&S Molds, San Carlos, Calif.). Test solutions were dissolved in sterile water and delivered using a nebulizer filled with 5.0 mL of dosing solution. Guinea pigs were restrained in the inhalation chamber for 30 minutes. During this time, guinea pigs were restricted to an area of approximately 110 sq. cm. This space was adequate for the animals to turn freely, reposition themselves, and allow for grooming. […] Upon completion of nebulization, guinea pigs were evaluated at 1.5, 6, 12, 24, 48, or 72 hrs after treatment.
Guinea pigs were anesthetized one hour before testing with an intramuscular (IM) injection of a mixture of ketamine 43.75 mg/kg, xylazine 3.5 mg/kg, and acepromazine 1.05 mg/kg at an 0.88 mL/kg volume. […] Saliva was collected for 10 minutes, at which point the gauze pad was weighed and the difference in weight recorded to determine the amount of accumulated saliva (in mg). The mean amount of saliva collected for animals receiving the vehicle and each dose of test compound was calculated. […] Results were calculated using result means (n=3 or greater). […]

[4] = molecular target: T3, hM2 receptor (CHO-K1 cells) (Homo sapiens, UniProt P08172); test: Blockade of agonist-mediated (oxotremorine) inhibition of forskolin-mediated cAMP accumulation; type: cell-based; conditions: CHO-K1 cells expressing the hM2 receptor
T3 construct: expressed in transfected cells; host or cells: CHO-K1 cells
T3 sequence (P08172 1-466): T1 sequence (P08172 1-466)
Method: A. Blockade of Agonist-Mediated Inhibition of cAMP Accumulation
In this assay, the functional potency of a test compound was determined by measuring the ability of the test compound to block oxotremorine-inhibition of forskolin-mediated cAMP accumulation in CHO—K1 cells expressing the hM2 receptor.
cAMP assays were performed in a radioimmunoassay format using the Flashplate Adenylyl Cyclase Activation Assay System with ^1251-cAMP (NEN SMP004B, PerkinElmer Life Sciences Inc., Boston, Mass.), according to the manufacturer's instructions.
Cells were rinsed once with dPBS and lifted with Trypsin-EDTA solution (0.05% trypsin/0.53 mM EDTA) as described in the Cell Culture and Membrane Preparation section above. […] The cell pellet was then re-suspended in 10 mL dPBS, and the cells were counted with a Coulter Z1 Dual Particle Counter (Beckman Coulter, Fullerton, Calif.). […]
Reactions were incubated for 10 minutes at 37° C. and stopped by addition of 100 μL ice-cold detection buffer. Plates were sealed, incubated overnight at room temperature and counted the next morning on a PerkinElmer TopCount liquid scintillation counter (PerkinElmer Inc., Wellesley, Mass.). The amount of cAMP produced (pmol/well) was calculated based on the counts observed for the samples and cAMP standards, as described in the manufacturer's user manual. […]

[5] = test system: ACh-induced bronchoconstriction; test: Duration of bronchoprotection in guinea pig model of acetylcholine-induced bronchoconstriction; type: in vivo; conditions: inhalation, 1.5 hours post-dose
Method: Groups of six male guinea pigs (Duncan-Hartley (HsdPoc:DH) Harlan, Madison, Wisc.) weighing between 250 and 350 g were individually identified by cage cards. Throughout the study animals were allowed access to food and water ad libitum.
Test compounds were administered via inhalation over 10 minutes in a whole-body exposure dosing chamber (R&S Molds, San Carlos, Calif.). The dosing chambers were arranged so that an aerosol was simultaneously delivered to 6 individual chambers from a central manifold. Guinea pigs were exposed to an aerosol of a test compound or vehicle (WFI). […] This was measured gravimetrically by comparing pre-and post-nebulization weights of the filled nebulizer.
The bronchoprotective effects of test compounds administered via inhalation were evaluated using whole body plethysmography at 1.5, 24, 48 and 72 hours post-dose.
Forty-five minutes prior to the start of the pulmonary evaluation, each guinea pig was anesthetized with an intramuscular injection of ketamine (43.75 mg/kg), xylazine (3.50 mg/kg) and acepromazine (1.05 mg/kg). […] The depth of anesthesia was monitored and adjusted if the animal responded to pinching of its paw or if the respiration rate was greater than 100 breaths/minute. […]
Starting this program initiated the experimental protocol and data collection. […] By integrating this signal over time, a measurement offlow was calculated for each breath. […]

SMILES: O=C(CCN1CCC(OC(=O)Nc2ccccc2-c2ccccc2)CC1)NCCCCCNCc1ccc(O)cc1 [Example 2, Biphenyl-2-ylcarbamic Acid 1-{2-[5-(4-Hydroxybenzylamino)pentylcarbamoyl]ethyl}piperidin-4-yl Ester]
- Ki [1]: < 10 nM
- Ki (hM3 receptor (CHO cells)): < 10 nM

SMILES: O=C(CCN1CCC(OC(=O)Nc2ccccc2-c2ccccc2)CC1)NCCCCCNCCc1ccc(O)cc1 [Example 1, Biphenyl-2-ylcarbamic Acid 1-(2-{5-[2-(4-Hydroxyphenyl)ethylamino]pentylcarbamoyl}ethyl)piperidin-4-yl Ester]
- apparent lung-selectivity index (ratio of anti-depressor ID50 to bronchoprotective ID50) [2]: greater than 5

SMILES: N[C@@H](Cc1ccc(O)cc1)C(=O)NCCCCCNC(=O)CCN1CCC(OC(=O)Nc2ccccc2-c2ccccc2)CC1 [Example 6, Biphenyl-2-ylcarbamic Acid 1-(2-{5-[(S)-2-Amino-3-(4-Hydroxyphenyl)propionylamino]pentylcarbamoyl}ethyl)piperidin-4-yl Ester]
- apparent lung selectivity index (ratio of anti-sialagogue ID50 to bronchoprotective ID50) [3]: greater than 5

SMILES: CN(CCCCCNC(=O)CCN1CCC(OC(=O)Nc2ccccc2-c2ccccc2)CC1)Cc1ccc(O)cc1 [Example 3, Biphenyl-2-ylcarbamic Acid 1-(2-{5-[(4-Hydroxybenzyl)methylamino]pentylcarbamoyl}ethyl)piperidin-4-yl Ester]
- Ki [4]: < 10 nM
- PD2(50) for ACh-induced bronchoconstriction [5]: less than 200 μg/mL

Source: patent US7569588B2, “Biphenyl compounds useful as muscarinic receptor antagonists” (Theravance, Inc., priority 2004, dated 2009)
